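Protocol summary: plate cells (96-well), add compound at 5 concentrations, incubate 48 h, interpolate endpoints linearly. GI50: concentration for 50% inhibition of growth. TGI marks complete inhibition of growth.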
Legend:
Assay in all cases: inhibition of tumour cell growth, NCI panel, 48 h
[1] = test system: SK-MEL-2 melanoma
[2] = test system: BT-549 breast
[3] = test system: TK-10 renal
[4] = test system: MDA-MB-435
[5] = test system: CAKI-1 renal
[6] = test system: LOX IMVI melanoma
[7] = test system: SF-268 CNS
[8] = test system: MOLT-4 leukemia
[9] = test system: NCI-H226 lung
[10] = test system: PC-3 prostate
[11] = test system: ACHN renal
[12] = test system: NCI-H522 lung
[13] = test system: UACC-257 melanoma
[14] = test system: A549 NSCLC
[15] = test system: T-47D breast
[16] = test system: OVCAR-5 ovarian
[17] = test system: EKVX NSCLC
[18] = test system: DU-145 prostate
[19] = test system: A498 renal
[20] = test system: OVCAR-4 ovarian
[21] = test system: SN12C renal
[22] = test system: HCT-116 colon
[23] = test system: NCI-H460 lung
[24] = test system: SF-539 CNS
[25] = test system: RPMI-8226 leukemia
[26] = test system: NCI-H23 lung
[27] = test system: RXF 393 renal
[28] = test system: HCC-2998 colon
[29] = test system: COLO 205 colon
[30] = test system: K-562 leukemia
[31] = test system: HT29 colon
[32] = test system: SK-MEL-5 melanoma
[33] = test system: MALME-3M melanoma
[34] = test system: OVCAR-3 ovarian
[35] = test system: MDA-MB-231 breast
[36] = test system: IGROV1 ovarian
[37] = test system: 786-0 renal
[38] = test system: KM12 colon
[39] = test system: HCT-15 colon
[40] = test system: U251 CNS
[41] = test system: SR leukemia
[42] = test system: SK-MEL-28 melanoma
[43] = test system: CCRF-CEM leukemia
[44] = test system: HL-60(TB) leukemia
[45] = test system: OVCAR-8 ovarian
[46] = test system: SNB-19 CNS
[47] = test system: HOP-62 NSCLC
[48] = test system: SK-OV-3 ovarian
[49] = test system: SF-295 CNS
[50] = test system: NCI/ADR-RES ovarian
[51] = test system: M14 melanoma
[52] = test system: HOP-92 NSCLC
[53] = test system: MCF7 breast
[54] = test system: SW-620 colon
[55] = test system: UO-31 renal
[56] = test system: HS 578T breast
[57] = test system: SNB-75 CNS
[58] = test system: UACC-62 melanoma

SMILES: C=C(C)[C@@H]1CC[C@]2(C)[C@H](CC[C@@H]3[C@@H]([C@@](C)(O)CCC=C(C)C)CC[C@]32C)[C@@]1(C)CCC(=O)N1CCN(C)CC1
- GI50 [1]: 14.8 µM
- TGI [1]: 29.8 µM
- GI50 [2]: 11.2 µM
- TGI [2]: 24.1 µM
- GI50 [3]: 17.7 µM
- TGI [3]: 32.2 µM
- GI50 [4]: 12.2 µM
- TGI [4]: 26.5 µM
- GI50 [5]: 12.4 µM
- TGI [5]: 24.9 µM
- GI50 [6]: 13.4 µM
- TGI [6]: 26.5 µM
- GI50 [7]: 13.1 µM
- TGI [7]: 30.1 µM
- GI50 [8]: 6.39 µM
- TGI [8]: 29.3 µM
- GI50 [9]: 12.9 µM
- TGI [9]: 31.7 µM
- GI50 [10]: 3.77 µM
- TGI [10]: 15.8 µM
- GI50 [11]: 13.6 µM
- TGI [11]: 26.5 µM
- GI50 [12]: 13.4 µM
- TGI [12]: 28.2 µM
- GI50 [13]: 11.8 µM
- TGI [13]: 25.6 µM
- GI50 [14]: 9.65 µM
- TGI [14]: 24.2 µM
- GI50 [15]: 4.72 µM
- TGI [15]: 19.6 µM
- GI50 [16]: 14 µM
- TGI [16]: 27.4 µM
- GI50 [17]: 11.6 µM
- TGI [17]: 23.9 µM
- GI50 [18]: 11.9 µM
- TGI [18]: 24.6 µM
- GI50 [19]: 13.2 µM
- TGI [19]: 26.6 µM
- GI50 [20]: 10.1 µM
- TGI [20]: 23.4 µM
- GI50 [21]: 11.4 µM
- TGI [21]: 24.2 µM
- GI50 [22]: 4.43 µM
- TGI [22]: 16.9 µM
- GI50 [23]: 16.9 µM
- TGI [23]: 32.9 µM
- GI50 [24]: 9.44 µM
- TGI [24]: 21.7 µM
- GI50 [25]: 5.99 µM
- TGI [25]: 28.6 µM
- GI50 [26]: 13.7 µM
- TGI [26]: 27.5 µM
- GI50 [27]: 5.25 µM
- TGI [27]: 16.4 µM
- GI50 [28]: 13.5 µM
- TGI [28]: 26.3 µM
- GI50 [29]: 12.3 µM
- TGI [29]: 26.8 µM
- GI50 [30]: 4.26 µM
- TGI [30]: 24.1 µM
- GI50 [31]: 4.14 µM
- TGI [31]: 16.2 µM
- GI50 [32]: 6.97 µM
- TGI [32]: 19.6 µM
- GI50 [33]: 10.7 µM
- TGI [33]: 23.6 µM
- GI50 [34]: 10.4 µM
- TGI [34]: 22.5 µM
- GI50 [35]: 13.4 µM
- TGI [35]: 26.7 µM
- GI50 [36]: 12.7 µM
- TGI [36]: 27.4 µM
- GI50 [37]: 10.3 µM
- TGI [37]: 23.8 µM
- GI50 [38]: 10.5 µM
- TGI [38]: 23.6 µM
- GI50 [39]: 6.04 µM
- TGI [39]: 18.1 µM
- GI50 [40]: 10.1 µM
- TGI [40]: 22 µM
- GI50 [41]: 3.39 µM
- TGI [41]: 21.6 µM
- GI50 [42]: 12.9 µM
- TGI [42]: 25.8 µM
- GI50 [43]: 11.6 µM
- TGI [43]: 37.6 µM
- GI50 [44]: 4.26 µM
- TGI [44]: 19.2 µM
- GI50 [45]: 14.1 µM
- TGI [45]: 30.5 µM
- GI50 [46]: 15 µM
- TGI [46]: 28.4 µM
- GI50 [47]: 12.8 µM
- TGI [47]: 26.1 µM
- GI50 [48]: 12.9 µM
- TGI [48]: 26.4 µM
- GI50 [49]: 13.4 µM
- TGI [49]: 26.2 µM
- GI50 [50]: 12.1 µM
- TGI [50]: 25 µM
- GI50 [51]: 10.1 µM
- TGI [51]: 24.2 µM
- GI50 [52]: 6.4 µM
- TGI [52]: 20.7 µM
- GI50 [53]: 7 µM
- TGI [53]: 21.1 µM
- GI50 [54]: 13 µM
- TGI [54]: 28.5 µM
- GI50 [55]: 11.3 µM
- TGI [55]: 23.3 µM
- GI50 [56]: 13.1 µM
- TGI [56]: 36.5 µM
- GI50 [57]: 11.3 µM
- TGI [57]: 25 µM
- GI50 [58]: 11.2 µM
- TGI [58]: 24.1 µM

SMILES: Cc1ccc(/C(=C/C=C(/C#N)C(N)=O)Sc2ncnn2C)cc1
- GI50 [1]: > 37.6 µM
- TGI [1]: > 55.7 µM
- GI50 [2]: 1.84 µM
- TGI [2]: 9.57 µM
- GI50 [3]: 14.2 µM
- TGI [3]: 29.1 µM
- GI50 [4]: 3.2 µM
- TGI [4]: 24.7 µM
- GI50 [5]: 2.73 µM
- TGI [5]: 19.6 µM
- GI50 [6]: 0.227 µM
- TGI [6]: 1.4 µM
- GI50 [7]: 6.84 µM
- TGI [7]: 25.6 µM
- GI50 [8]: 10.1 µM
- TGI [8]: > 100 µM
- GI50 [9]: 7.5 µM
- TGI [9]: 25.9 µM
- GI50 [10]: 11.4 µM
- TGI [10]: 25.5 µM
- GI50 [11]: 2.94 µM
- TGI [11]: 14.2 µM
- GI50 [12]: 2.6 µM
- TGI [12]: > 52.5 µM
- GI50 [13]: 17.6 µM
- TGI [13]: 33.6 µM
- GI50 [14]: 21.6 µM
- TGI [14]: 54.4 µM
- GI50 [15]: 18.7 µM
- TGI [15]: 40.1 µM
- GI50 [16]: 8.89 µM
- TGI [16]: 23.5 µM
- GI50 [17]: 1.13 µM
- TGI [17]: 14.6 µM
- GI50 [18]: 6.61 µM
- TGI [18]: 18.2 µM
- TGI [19]: 3.4 µM
- GI50 [20]: 24.4 µM
- TGI [20]: > 72.5 µM
- GI50 [21]: 7.89 µM
- TGI [21]: 23.4 µM
- GI50 [22]: 4.57 µM
- TGI [22]: 15.3 µM
- GI50 [23]: 4.66 µM
- TGI [23]: 48.2 µM
- GI50 [24]: 6.19 µM
- TGI [24]: 20.4 µM
- GI50 [25]: 2.4 µM
- TGI [25]: > 22.9 µM
- GI50 [26]: 4.16 µM
- TGI [26]: 15.8 µM
- GI50 [27]: 6.86 µM
- TGI [27]: 25 µM
- GI50 [28]: 13 µM
- TGI [28]: 26.4 µM
- GI50 [29]: 15.4 µM
- TGI [29]: 35.2 µM
- GI50 [30]: 5.48 µM
- TGI [30]: > 100 µM
- GI50 [31]: 13.3 µM
- TGI [31]: 48.6 µM
- GI50 [32]: 6.6 µM
- TGI [32]: 15.1 µM
- GI50 [33]: 2.03 µM
- TGI [33]: 14.7 µM
- GI50 [34]: 5.95 µM
- TGI [34]: 18.1 µM
- GI50 [35]: 9.57 µM
- TGI [35]: 22.9 µM
- GI50 [36]: 18 µM
- TGI [36]: > 55.1 µM
- GI50 [37]: 4.35 µM
- TGI [37]: 10.9 µM
- GI50 [38]: 19.9 µM
- TGI [38]: 44.3 µM
- GI50 [39]: 4.96 µM
- TGI [39]: 19.9 µM
- GI50 [40]: 3.47 µM
- TGI [40]: 19.1 µM
- GI50 [41]: 2.51 µM
- TGI [41]: > 35.2 µM
- GI50 [42]: 14.9 µM
- TGI [42]: 35.7 µM
- GI50 [43]: 0.941 µM
- TGI [43]: > 70.8 µM
- GI50 [44]: 12.3 µM
- TGI [44]: 83 µM
- GI50 [45]: 15.8 µM
- TGI [45]: 43.8 µM
- GI50 [46]: 22 µM
- TGI [46]: 50.2 µM
- GI50 [47]: 13.1 µM
- TGI [47]: 27.7 µM
- GI50 [48]: 23.1 µM
- TGI [48]: > 62.3 µM
- GI50 [49]: 16.4 µM
- TGI [49]: 41.5 µM
- GI50 [50]: 7.25 µM
- TGI [50]: > 69.6 µM
- GI50 [51]: 6.4 µM
- TGI [51]: 19.9 µM
- GI50 [52]: 14.1 µM
- TGI [52]: 30.5 µM
- GI50 [53]: 3.49 µM
- TGI [53]: > 55.3 µM
- GI50 [54]: 3.87 µM
- TGI [54]: 15.6 µM
- GI50 [55]: 5.53 µM
- TGI [55]: > 65.4 µM
- GI50 [56]: 20.1 µM
- TGI [56]: 50.1 µM
- GI50 [57]: 15.6 µM
- TGI [57]: 30.8 µM
- GI50 [58]: 11 µM
- TGI [58]: 24.6 µM

From PubChem BioAssay (NCI)
